Article PMC6254985 (Journal of Experimental Pharmacology, 2018)
Where a name gives a salt, the structure may show the parent alone. Read-outs that look alike come from different tables or passages of the source.

Tests used:
human D2S receptor = human D2S receptor (Homo sapiens, UniProt P14416); experiment: [35S]GTPγS binding assay, antagonist activity, D2S; type: biochemical
human D2L receptor = human D2L receptor (Homo sapiens, UniProt P14416); experiment: [35S]GTPγS binding assay, antagonist activity, D2L; type: biochemical
human D2L receptor, sequence (P14416 whole entry): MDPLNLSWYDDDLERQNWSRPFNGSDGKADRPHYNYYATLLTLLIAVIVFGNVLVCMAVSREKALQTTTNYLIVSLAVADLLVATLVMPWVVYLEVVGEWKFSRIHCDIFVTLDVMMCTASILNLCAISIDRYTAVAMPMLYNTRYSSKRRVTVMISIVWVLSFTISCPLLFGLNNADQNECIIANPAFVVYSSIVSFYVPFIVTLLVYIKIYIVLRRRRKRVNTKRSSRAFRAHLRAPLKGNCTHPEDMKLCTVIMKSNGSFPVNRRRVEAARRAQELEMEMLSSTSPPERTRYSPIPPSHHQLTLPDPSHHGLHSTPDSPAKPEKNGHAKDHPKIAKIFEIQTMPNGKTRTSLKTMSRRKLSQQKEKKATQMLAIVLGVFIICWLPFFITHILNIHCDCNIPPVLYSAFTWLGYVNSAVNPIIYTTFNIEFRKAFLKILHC

[1] = tested on: alpha-adrenergic receptors; experiment: Inhibition of alpha-adrenergic receptors
[2] = cited from earlier work
[3] = tested on: 5-HT2A, 5-HT2B, 5-HT2C, 5-HT6, 5-HT7, D1, D2S, D2L, D3, or D5; experiment: Agonist effect in the presence of dopamine or norepinephrine; type: cell-based

human D2S receptor, sequence (P14416 1-414 isoform P14416-2): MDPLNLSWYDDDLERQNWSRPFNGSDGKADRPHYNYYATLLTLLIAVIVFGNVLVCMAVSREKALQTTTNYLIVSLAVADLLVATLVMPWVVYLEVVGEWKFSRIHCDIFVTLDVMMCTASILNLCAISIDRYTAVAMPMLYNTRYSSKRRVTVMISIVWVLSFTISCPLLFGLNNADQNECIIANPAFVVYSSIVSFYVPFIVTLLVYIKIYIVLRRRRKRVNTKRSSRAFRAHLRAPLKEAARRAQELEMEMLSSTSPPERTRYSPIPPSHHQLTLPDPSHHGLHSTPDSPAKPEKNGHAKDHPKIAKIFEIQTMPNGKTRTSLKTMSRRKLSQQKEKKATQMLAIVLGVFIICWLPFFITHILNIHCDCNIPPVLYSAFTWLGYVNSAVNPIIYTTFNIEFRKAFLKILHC

| SMILES | Antagonist potency of R(−) relative to S(+) enantiomer, D2S (human D2S receptor; based on the IC50) | IC50 (human D2S receptor; read-out: IC50 of enantiomers, D2S, [35S]GTPγS binding assay) [nM] | Antagonist potency of R(−) relative to S(+) enantiomer, D2L (human D2L receptor; based on the IC50) [fold] | IC50 (human D2L receptor; read-out: IC50 of enantiomers, D2L, [35S]GTPγS binding assay) [nM] | Inhibition of the alpha-adrenergic receptors [1] | Parkinsonism or extrapyramidal symptoms [2] | Propensity for weight gain [2] | Agonist effect in the presence of dopamine or norepinephrine [3] | IC50 (human D2S receptor) [nM] |
| --- | --- | --- | --- | --- | --- | --- | --- | --- | --- |
| CCc1c(C)[nH]c2c1C(=O)[C@@H](CN1CCOCC1)CC2 (single isomer, unassigned) [R(−) enantiomer] | ~ 100 fold | 48 | ~300 | 21 |  |  |  |  |  |
| CCc1c(C)[nH]c2c1C(=O)C(CN1CCOCC1)CC2 (stereo not drawn) [SPN-810M, Molindone Hydrochloride] |  |  |  |  | no significant inhibition | little to no parkinsonism or extrapyramidal symptoms | low propensity for weight gain | No agonist effect | 84.4 |
